According to patent US12447117B2, “Composition and method of enhancing skin barrier using the same” (AMOREPACIFIC CORPORATION, priority 2018, dated 2025):

What was measured:
[1] = test system: KRT10 (keratin 10) gene expression in normal human epidermal keratinocytes (NHEK); experiment: Expression level of keratinocyte differentiation marker KRT10 in UVB-irradiated NHEK (TAQMAN real-time PCR); assay type: cell-based; conditions: UVB 25 mJ/cm^2, 10 nM compound, harvested on fourth day of culture, versus UV-irradiated cells (FIG. 1)
Experimental: (§1) Normal human epidermal keratinocytes (NHEK) were cultured in a 6-well plate incubator. 24 hours later, the normal human epidermal keratinocytes (NHEK) were cultured by replacing it with phosphate-buffered saline (PBS) and irradiating it with UVB (25 mJ/cm^2) and adding 10 nM of a compound represented by Chemical Formula 1-1 (Cayman Chemical) to the NHEK culture medium. On the fourth day of the culture, cells were harvested to separate RNA and synthesize cDNA through RT-PCR (a reverse transcriptional polymerase chain reaction), and the synthesized cDNA was used to perform TAQMAN™ real-time PCR and measure gene expression levels of a keratinocyte differentiation marker, KRT10, and a desmosome constituent factor, DSC1, and the results are shown in FIGS. 1 and 2.

[2] = test system: DSC1 (Desmocollin-1) gene expression in normal human epidermal keratinocytes (NHEK); experiment: Expression level of desmosome constituent factor DSC1 in UVB-irradiated NHEK (TAQMAN real-time PCR); assay type: cell-based; conditions: UVB 25 mJ/cm^2, 10 nM compound, harvested on fourth day of culture, versus UV-irradiated cells (FIG. 2)
Experimental: as §1

Structure (SMILES): CC/C=C\C[C@H](O)/C=C/C=C\C=C\C=C\[C@@H](O)[C@@H](O)C/C=C\CCC(=O)O [Chemical Formula 1-1]
- gene expression level of KRT10 (keratin 10) [1]: increased again
- gene expression level of DSC1 [2]: increased again
